Consider three compounds from US6172052A, “17β-acyl-17α-propynyl-11β-arylsteroids and their derivatives having agonist or antagonist hormonal properties” (Research Triangle Institute, priority 1998, dated 2001).

Test [1] has as its system progestin receptor. The test can be described thus: Receptor binding: relative binding activity (RBA) for progestin receptor, competition with 3H-R5020 in T-47D cells. As to conditions: T-47D human breast carcinoma cells; ratio of concentrations causing 50% displacement of 3H-R5020; percentage of reference standard R-5020. As to the method: Receptor Binding. The affinity of the compounds for hormone receptors was determined by standard procedures similar to those that have been described, inter alia, by Wagner et al., Proc. Natl. Acad. Sci., 93, 8739-8744 (1996) for COS-1 cells. The human breast carcinoma (T-47D) cell line was used to assess RBA for progestin receptor. The cell line used was obtained from ATCC (American Type Culture Collection) and stored frozen at -135° C. until a week before the assays were conducted. The cells were thawed and cultured to achieve the desired cell number (5 to 7 days on average). […] After incubation overnight, medium was removed, the cells were washed and solubilized and radioactivity was measured by liquid scintillation spectromctry. Nonspecific binding was determined by incubation with an excess of unlabeled R5020 and subtracted from total binding to calculate specific binding. […]
The percentage of specifically bound ^3 H-R5020 for each concentration tested was calculated and binding curves were generated by plotting the percentage of specifically bound ^3 H-R-5020 versus the concentration of the competitor. The relative binding activity (RBA) of the test compounds, relative to the reference standard (R5020) as well as the internal standard, was determined from the ratio of concentrations causing 50% displacement for each unknown and standard, and expressed as a percentage value. […]
On the technique in general: In a radioligand displacement assay an active substance lowers the binding of a labelled ligand.

Test [2] has as its system estrogen-primed, progesterone-stimulated immature female rabbits. Description: In vivo antiprogestational activity, uterine endometrial effects scored according to McPhail. Also on record: species or system rabbit. As to conditions: oral. As to the method:
In vivo Test. Antiprogestational activity was determined in vivo by dose-response studies in estrogen-primed, progesterone-stimulated immature female rabbits and results were scored according to McPhail (McPhail, J. Physiol., 83: 146 (1934)). These are standard procedures well-known to those skilled in the art. For determining antiprogestational (antagonist) activity, the test compound was given orally together with subcutaneous administration of progesterone. It was tested orally at 0.5, 1 and 2 mg total dose in estrogenprimed immature female rabbits that were simultaneously given subcutaneous progesterone. The rabbits, weighing about 1.5 kg, were primed with estrogen one a day for 6 days and then treated once a day for 5 days with 0.8 mg total dose of progesterone--i.e.160 μg/day--while at the same time giving the test compound orally once a day in a vehicle of 10% ethanol/sesame oil (0.5 mL volume). Necropsy was performed one day after the last dose. Uterine endometrial effects were scored according to McPhail and potency was evaluated by statistical comparison with the standard compound
17α-acetoxy-11β-[4-(N,N-dimethylamino)phenyl]-19-norpregna-4,9-diene-3,20-dione.

For test [3] the following is noted: from C. E. Cook et al, Human Reproduction, 9, Supplement 1, 32-39, June 1994; cited from earlier work.

SMILES strings stand for the structures.

In the case of `CC#C[C@]1(C(C)=O)CC[C@H]2[C@@H]3CCC4=CC(=O)CCC4=C3[C@@H](c3ccc(N(C)C)cc3)C[C@@]21C` [A-1, 11β-[4-(N,N-Dimethylamino)phenyl]-17α-(1-propynyl)-19-norpregna-4,9-diene-3,20-dione], the “RBA (relative binding activity) relative to R-5020” value in test [1] stood at 313%. Further, the “antiprogestational potency relative to the standard compound” value in test [2] (once a day for 5 days with subcutaneous progesterone, McPhail score, standard = 17α-acetoxy-11β-[4-(N,N-dimethylamino)phenyl]-19-norpregna-4,9-diene-3,20-dione) is given as 5 fold. Further, the “antiprogestational potency relative to mifepristone” value in test [2] (worked out from 5-fold versus standard and standard 3-fold versus mifepristone) is recorded as at most 15 fold.

Take `CC#C[C@]1(C(C)=O)CC[C@H]2[C@@H]3CCC4=CC(=O)CCC4=C3[C@@H](c3ccc(C(C)=O)cc3)C[C@@]21C` [A-16, 11β-(4-Acetylphenyl)-17α-(1-propynyl)-19-norpregna-4,9-diene-3,20-dione]: the “RBA (relative binding activity) relative to R-5020” value in test [1] stood at 439%. In addition, in test [2] (estrogen-primed, progesterone-stimulated immature female rabbits), the “antiprogestational activity (in words)” value was “had antiprogestational activity”.

In the case of `CC(=O)O[C@]1(C(C)=O)CC[C@H]2[C@@H]3CCC4=CC(=O)CCC4=C3[C@@H](c3ccc(N(C)C)cc3)C[C@@]21C` [standard compound, 17α-acetoxy-11β-[4-(N,N-dimethylamino)phenyl]-19-norpregna-4,9-diene-3,20-dione], in test [3], the “antiprogestational potency relative to mifepristone” value is “approximately 3 fold”.
